Paper PMC11329928, “Design, synthesis and structure-activity relationship (SAR) studies of an unusual class of non-cationic fatty amine-tripeptide conjugates as novel synthetic antimicrobial agents” (Frontiers in Pharmacology, 2024)
Structures can show the parent of a compound that is named as a salt.

Key:
[1] = system: Streptococcus pneumoniae R6; assay: Growth inhibition / lysis screening of planktonic cultures (OD550/600); format: cell-based; set-up: key: (+++) full inhibition; (++) partial inhibition; (+) growth retardation; -: (−) no effect; settings: S. pneumoniae R6, 50 and 100 μM compound added at early logarithmic phase (T1), OD550/600 followed 10 h, 37°C
Experimental: (§1) Planktonic cultures of selected pathogens (S. pneumoniae R6, S. pyogenes ^T, Staphylococcus aureus ^T, Escherichia coli DH10B, and Pseudomonas aeruginosa PAO1 strains) on early logarithmic-phase (T1) were assayed for their sensitivity to a broad range of DICAM compounds, as indicated in Table 1. Their bacteriostatic or lytic effect was first tested by measuring the variation of the OD550/600 as a function of time (10 h) when (50/100 μM) DICAMs were added, compared to untreated controls. The screening results, summarized in Table 1, evidenced that a potent antimicrobial activity may exist even when the negative charge of the peptide was higher than in the prototype compounds.
(§2) Susceptibility to DICAMs was first tested by growth-inhibition assays at 50 and 100 μM of compound. Briefly, working solutions at 5 mM or 10 mM DICAM in pure DMSO were prepared from DICAM stocks (40 mM in pure DMSO) and diluted with fresh culture medium to 5× the desired final concentration. Aliquots (50 µL) of these solutions were added to 200 µL of bacterium cultures grown to early exponential phase (OD550/600 c. a. 0.15–0.2 in sterile 96-well plates (Cultek, Spain). Incubation continued for 10 h at 37°C and turbidity (OD550/600) values were measured every 20 min to monitor growth and lysis, using a VersaMax microplate reader (Molecular Devices; United Kingdom). Next, the activity dependence on DICAM’s dose was examined by measuring the turbidity of treated and untreated cultures as a function of time. Also, the decay of bacterial viability (CFU/mL) at selected times of treatment was assessed by colony counting on LB-agar or TSA plates after overnight incubation at 37°C. By default, 10 μL of 10-fold serially diluted samples were plated, which set the lower detection limit at 10^2 CFU/mL (10^1 CFU/mL when 100 μL of the undiluted sample was seeded).

[2] = system: Streptococcus pyogenes T; assay: Growth inhibition screening of planktonic cultures (OD550/600); format: cell-based; set-up: key: (+++) full inhibition; (++) partial inhibition; (+) growth retardation; -: (−) no effect; settings: S. pyogenes T, 50 and 100 μM compound added at T1, OD550/600 followed 10 h, 37°C
Experimental: as §1, §2

[3] = RP-HPLC retention time used to determine hydrophobicity; format: physicochemical; settings: analytical RP-HPLC, C18 Sunfire column (4.6 mm × 150 mm, 3.5 μm); A = 0.05% TFA in water, B = acetonitrile; 10% to 100% B in 20 min then isocratic 100% B 10 min; 217 and 254 nm; used as measure of hydrophobicity
Experimental: The purity of the lipopeptides was checked by analytical RP-HPLC on an Agilent Infinity instrument equipped with a Diode Array and a C18 Sunfire column (4.6 mm × 150 mm, 3.5 μm). As mobile phase A:B mixtures were used, where A = 0.05% TFA in water and B = acetonitrile. The samples were analyzed at 217 and 254 nm in a gradient from 10% of B to 100% of B in 20 min followed by isocratic 100% of B in 10 min.
Retention times were used to determine the hydrophobicity ([Neubauer et al., 2020]). HRMS (EI+) was carried out in an Agilent 6,520 Accurate-Mass Q-TOF LC/MS spectrometer using water/acetonitrile mixtures. Results can be found in Supplementary Section S3, S4.

[4] = system: S. pneumoniae D39; format: cell-based, Streptococcus pneumoniae; settings: for SC (stationary concentration, Δlog = 0), S. pneumoniae D39 / EC50 / Δlogmax, S. pneumoniae D39: 1 h treatment, Hill fit; for SC (stationary concentration, Δlog = 0), S. pneumoniae D39: C + Y medium, added at T1, 10^7–10^8 CFU/mL, CFU vs untreated controls; for EC50 / Δlogmax, S. pneumoniae D39: C + Y; for EC50: read-out: K 1/2 (concentration yielding half-variation in Δlogmax), S. pneumoniae D39 (converted); for Δlogmax, S. pneumoniae D39: maximum variation in viability; for Reduction of the number of viable cells at 3 × SC, S. pneumoniae: after 1-h incubation at 3 × SC values
Text: First, the substitution of the fatty amino chain of 18 carbon atoms of the reference compound DICAM 2 by either an OMe group (methylated tripeptide DICAM 5) or an amine with 12 carbon atoms (DICAM 9) abolished the activity against all three pathogens. However, the activity remained intact when the chain of the fatty amine of prototypes DICAMs 1 and 4 was two carbon atoms shorter (DICAM 10 and DICAM 12, respectively), based on S. pneumoniae and S. pyogenes results. […] Third, Glu and Ala were tolerated as C-terminal residues of the lipotripeptides. […] In addition, deletion of the C-terminal Glu (DICAM 13) eradicated the activity against S. pneumoniae and S. aureus. However, a delay and small inhibition of S. pyogenes ^T growth was still observed. Fourth, Glu (DICAMs 19 and 20) and Orn (DICAMs 21 and 22) were tolerated as N-terminal residues, with the impact of these modifications being pathogen-dependent. […] SAR studies continued by measuring the dose dependence of DICAM’s activity at T1 with all the compounds found to be active against S. pyogenes or S. aureus in the initial screening, and all but one compound in the case of S. pneumoniae. The OD values of bacterial cultures were monitored after DICAM addition, and the decrease in the number of viable bacteria was measured relative to controls (Figures 4–6; Supplementary Figure S1). As antibacterial efficacy may decline with the bacterium dose in the inoculum ([Belley et al., 2009]; [Udekwu et al., 2009]; [Luca et al., 2013]), the assays were performed using the bacterial concentrations necessary for the fluorescence experiments in Section 2.3 (10^7–10^8 CFU/mL). At these high bacterial densities, MICs were determined as the DICAM concentration at which bacteria neither grow nor are killed (the stationary concentration (SC)), following [Udekwu et al., 2009]. By fitting the logarithmic plot of cell viability decrease vs. the DICAM dose to a Hill function (see Section 5.2.3.1) we were able to determine the maximum variation in viability (Δlogmax = ∆log f - ∆log 0, where ∆log f and ∆log 0 are the upper and lower limits of Δlog) in the assay conditions, the SC concentration (Δlog = 0), the dose required for half-variation in Δlogmax (K 1/2), and the cooperativity of the antimicrobial effect (N H).
as §2
As antibacterial efficacy may decline with the bacterium dose in the inoculum ([Belley et al., 2009]; [Udekwu et al., 2009]; [Luca et al., 2013]), activity assays were performed using the bacterial concentrations required for the fluorescence experiments in Section 2.3 (10^7–10^8 CFU/mL). At such bacterial densities, MICs were determined as the DICAM concentration at which bacteria neither grow nor are killed under assay conditions (the stationary concentration (SC)), as indicated in Section 2.2. […]

[5] = S. pneumoniae D39, 50 μM (Supplementary Figure S1F), C+Y, 37°C
[6] = S. pneumoniae D39, within 60 min

| Compound | Growth halt or lysis (50/100 μM), Spn [1] | Growth halt or lysis (50/100 μM), Spy T [2] | Retention time [3] [min] | SC (stationary concentration, Δlog = 0), S. pneumoniae D39 ([4]; 37°C) | EC50 ([4]; 37°C) [µM] | Time required to reduce the viability by 99.99% [4, 5] [h] | Viability decrease in 1 h [4, 5] | Δlogmax, S. pneumoniae D39 ([4]; 37°C) [logarithmic units] | Reduction of the number of viable cells at saturating doses [4, 6] [log-units] | Reduction of the number of viable cells at 3 × SC, S. pneumoniae [4] | Cell killing after 60 min of incubation [4, 5] [%] | Time to nearly sterilize the culture ([4]; S. pneumoniae D39, 50 μM, C+Y, 37°C, legend of Supplementary Figure S1F) | Bacterial viability reduction at ≈ 5 μM ([4]; S. pneumoniae D39, within 60 min, ≈ 5 μM) [%] | Bacterial viability reduction at 10 μM ([4]; S. pneumoniae D39, within 60 min, 10 μM) [%] |
| --- | --- | --- | --- | --- | --- | --- | --- | --- | --- | --- | --- | --- | --- | --- |
| CCCCCCCCCCCCCCCCCCNC(=O)[C@H](CCC(=O)O)NC(=O)[C@H]1CCCN1C(=O)[C@H](CC(N)=O)NC(=O)OCc1ccccc1 [DICAM 1, Cbz-Asn- Pro -Glu-NH-C18H37] | +++ | +++ | 21.41 | 2 ± 0.2 µM | 3.8 ± 0.2 | 2 to 2.5 | ≈ 90% | 2.05 ± 0.03 | – | – | – | – | – | – |
| CCCCCCCCCCCCCCCCCCNC(=O)[C@H](CCC(=O)O)NC(=O)[C@H]1CCCN1C(=O)[C@@H](N)CC(N)=O [DICAM 2, Asn- Pro -Glu-NH-C18H37 ·HCl] | +++ | +++ | 12.14 | 4.1 ± 0.6 µM | 10.7 ± 0.4 | – | – | 4.6 ± 0.1 | ≥ 4.6 | 99.2%–99.8 | – | – | – | – |
| CCCCCCCCCCCCCCCCCCNC(=O)[C@H](CCC(=O)O)NC(=O)[C@H]1CCCN1C(=O)[C@H](C)NC(=O)OCc1ccccc1 [DICAM 3, Cbz-Ala- Pro -Glu-NH-C18H37] | +++ | +++ | 21.42 | 6.5 ± 0.5 µM | 7.8 ± 0.4 | 2 to 2.5 | ≈ 90% | 1.51 ± 0.04 | – | – | – | – | – | – |
| CCCCCCCCCCCCCCCCCCNC(=O)[C@H](CCC(=O)O)NC(=O)[C@H]1CCCN1C(=O)[C@H](C)N [DICAM 4, Ala- Pro -Glu-NH-C18H37 ·HCl] | +++ | +++ | 19.24 | 4 ± 1.5 µM | 13 ± 2 | – | – | 6.0 ± 0.4 | ≥ 4.6 | 99.2%–99.8 | ≥ 99.999 | less than 1 h | – | – |
| CCCCCCCCCCCCCCCCNC(=O)[C@H](CCC(=O)O)NC(=O)[C@H]1CCCN1C(=O)[C@H](CC(N)=O)NC(=O)OCc1ccccc1 [DICAM 10, Cbz-Asn- Pro -Glu-NH-C16H33] | +++ | +++ | 18.23 | 3.4 ± 0.5 µM | 6.5 ± 0.3 | 2 to 2.5 | ≈ 90% | 3.13 ± 0.06 | – | – | – | – | – | – |
| CCCCCCCCCCCCCCCCCCNC(=O)[C@H](C)NC(=O)[C@H]1CCCN1C(=O)[C@H](C)N [DICAM 14, Ala- Pro -Ala-NH-C18H37 · HCl] | +++ | +++ | 19.50 | ∼33 µM | – | – | – | – | – | – | – | – | – | – |
| CCCCCCCCCCCCCCCCCCNC(=O)[C@H](CCC(=O)O)NC(=O)[C@H]1CCCN1C(=O)[C@H](CCC(=O)O)NC(=O)OCc1ccccc1 [DICAM 19, Cbz-Glu- Pro -Glu-NH-C18H37] | +++ | +++ | 21.22 | 3.0 ± 0.8 µM | ~5 | – | – | 3.0 ± 0.2 | – | 99.2%–99.8 | – | – | > 99.5 | – |
| CCCCCCCCCCCCCCCCCCNC(=O)[C@H](CCC(=O)O)NC(=O)[C@H]1CCCN1C(=O)[C@@H](N)CCC(=O)O [DICAM 20, Glu- Pro -Glu-NH-C18H37 · HCl] | +++ | +++ | 18.71 | 3.0 ± 0.7 µM | 4.4 ± 0.6 | – | – | 3.0 ± 0.1 | – | 99.2%–99.8 | – | – | – | > 99.5 |
| CCCCCCCCCCCCCCCCCCNC(=O)[C@H](CCC(=O)O)NC(=O)[C@H]1CCCN1C(=O)[C@H](CCCN)NC(=O)OCc1ccccc1 [DICAM 21, Cbz-Orn- Pro -Glu-NH-C18H37] | +++ | +++ | 19.70 | 8 ± 1 µM | 9 ± 1 | – | – | 1.9 ± 0.1 | – | – | – | – | – | – |
| CCCCCCCCCCCCCCCCCCNC(=O)[C@H](CCC(=O)O)NC(=O)[C@H]1CCCN1C(=O)[C@@H](N)CCCN [DICAM 22, Orn- Pro -Glu-NH-C18H37 · HCl] | +++ | ++ | 16.91 | 20 ± 8 µM | 22 ± 8 | – | – | 1.4 ± 0.4 | – | – | – | – | – | – |
| CCCCCCCCCCCCCCCCCCNC(=O)[C@H](CCC(=O)O)NC(=O)[C@H]1CCCN1C(=O)[C@H](C)NC(C)=O [DICAM 24, Ac-Ala- Pro -Glu-NH-C18H37] | +++ | +++ | 21.23 | 4 ± 0.8 µM | 6.1 ± 0.6 | – | – | 2.2 ± 0.1 | – | – | – | – | – | – |
